In the supplement of paper PMC10307832 one finds relative viability data, which are given here for 1 cell line.

Holding throughout (experiment): relative viability (nuclei count vs DMSO), 5 days (fraction); higher = more cells survive
Compound in test [1]: Cc1cc([C@@H](C)Nc2ccccc2C(=O)O)c2nc(N3CCOCC3)cc(=O)n2c1 [AZD6482] + O=C(CCCCCCC(=O)Nc1ccccc1)NO [Vorinostat] (partner 1 µM)
In short, it runs like this: (§1)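 Lung cancer cell lines were seeded in 1536-well plates and dosed by pin tool the next day, with either a single drug or a fixed anchor-drug dose combined with five library-drug doses (not always all listed) spaced in √10 steps. Five days later, one step fixed the cells and stained their nuclei (final 0.05% Triton X-100, 1% formaldehyde, 1 ug/ml Hoechst), and nuclei were counted on 4× images. Relative viability is the nuclei count in treated wells divided by the count in vehicle wells, and each value is the median of duplicate plates.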

Compound in test [2]: COc1cc2nc(N3CCCN(C)CC3)nc(NC3CCN(Cc4ccccc4)CC3)c2cc1OC + C[C@@H](Oc1cc(-c2cnn(C3CCNCC3)c2)cnc1N)c1c(Cl)ccc(F)c1Cl [Crizotinib] (partner 1 µM)
The method, boiled down:
as §1

Compound in test [3]: Cc1cc([C@@H](C)Nc2ccccc2C(=O)O)c2nc(N3CCOCC3)cc(=O)n2c1 [AZD6482] + Cc1nc(NC(=O)N2CCC[C@H]2C(N)=O)sc1-c1ccnc(C(C)(C)C(F)(F)F)c1 [Alpelisib] (partner 2 µM)
In short, it runs like this:
as §1

Compound in test [4]: COc1cc2nc(N3CCCN(C)CC3)nc(NC3CCN(Cc4ccccc4)CC3)c2cc1OC + Nc1nc2[nH]cc(CCc3ccc(C(=O)N[C@@H](CCC(=O)O)C(=O)O)cc3)c2c(=O)[nH]1 [Pemetrexed] (partner 0.2 µM)
The method, boiled down: as §1

With UMC-11, the relative viability is 0.326 in test [1] (first compound 0.08 µM); 0.347 in test [1] (first compound 0.253 µM); 0.384 in test [1] (first compound 0.8 µM); 0.341 in test [1] (first compound 2.53 µM); 0.331 in test [1] (first compound 8 µM); 0.614 in test [2] (first compound 0.2 µM). Also, the relative viability in test [2] (first compound 0.6325 µM) worked out at 0.498; in test [2] (first compound 2 µM), 0.673; in test [2] (first compound 6.325 µM), 0.44; in test [3] (first compound 0.08 µM), 1.01; in test [3] (first compound 0.253 µM) it was 0.938; in test [3] (first compound 0.8 µM), 0.984. Moreover, the relative viability in test [3] (first compound 2.53 µM) was 0.693; in test [3] (first compound 8 µM), 0.965; in test [4] (first compound 0.2 µM), 0.86; in test [4] (first compound 0.6325 µM), 0.773; in test [4] (first compound 2 µM) it was 0.834; in test [4] (first compound 6.325 µM), 0.588.
